SMILES strings stand for the structures.

The test system of one assay is KO^Ex2 mice. Kind of assay: L-DOPA challenge, beam balance test. Format: in vivo, mouse. On the procedure:
The balance beam test (FIG. 10d) was performed using standard approach (55). […] KO^ex2 and WT males from 8 to 24 month of age were tested. Each mouse was placed on a beam for 2 minutes, and its movement was recorded by video camera. The total travel distance, the number of missteps (paw faults, or slips) during travel were analyzed for each mouse, and data summarized for each group as mean±SEM; the numbers of animals used for each time point is identified on the graphs. L-DOPA challenge test (FIG. 10e) was performed on KO^ex2 and WT littermates mice at 12, 16 and 24 months of age. Control beam balance test was performed in the morning a day before L-DOPA challenge. In the morning of the following day, all mice received a single dose of L-3,4-dihydroxyphenylalanine (L-DOPA) via peritoneal injection. Three different doses (5, 10 and 25 mg/kg, Sigma) were tested on the same groups of animals in separate experiments performed with 2-3 days intervals. During each test 20 minutes before L-DOPA administration, mice were given 6 mg/kg of Benserazide (Sigma) to inhibit peripheral DOPA decarboxylase. Beam balance test was done 1 h after L-DOPA injection, as described above. Video-recorded data for each mouse were analyzed later, and summarized for each group as mean±SEM; the numbers of animals used for these studies is identified on the graphs.

Assay [1] deals with intracellular Ca^2+ stores. In words: Ca^2+ imaging, ionomycin-induced Ca^2+ release from intracellular stores in MEFs. It is filed as cell-based, mouse. To be noted: MEFs from KO^Ex2 mice compared to WT; IM 1 μM, extracellular EGTA. Here is the method:
(§1) MEFs were cultured in glass bottom dishes coated with fibronectin (2.5 μg/cm^2, Sigma, St. Louis, Mo., USA) for 24-48 hours. Intracellular Ca^2+ measurements were done similar to published earlier (57). Briefly, the cells were loaded with fura-2/AM (5 μM) (Invitrogen), and cytosolic Ca^2+ (measured as F340/F380 ratio) was recorded simultaneously in 10-20 individual cells using a dual-excitation fluorescence imaging system (Intracellular Imaging, USA): representative traces show an average (±SEM) for 10-20 cells recorded simultaneously. Ca^2+ changes were calculated as Δ Ratio(F340/F380), which is the difference between the basal and peak values of Ca^2+ responses.
(§2) The following treatments were used in Ca^2+ studies (FIG. 14): TPEN (N,N,N′,N′-Tetrakis(2-pyridylmethyl)ethylenediamine, Sigma, USA) was applied (400 μM) directly to the cells during recording, 3 min before 2 mM Ca^2+ addition; (S)-BEL ((S)-bromoenol lactone, Cayman, USA) was applied (50 μM for 20 min in serum-free medium at 37° C.) to the cells after their loading with fura-2/AM, and was washed away before the start of experiment; EGTA (2.5 mM) was added to 2 mM Ca^2+-containing bath solution right before ionomycin (IM, 1 μM) application.

The next assay relates to PLA2g6. Kind of assay: PLA2g6 catalytic activity in homogenates of brain or MEFs. It is filed as biochemical, mouse. Conditions: no differences between KO^Ex2 and WT. Here is the method: The activity of PLA2g6 (FIG. 14) was determined using modified PLA2 assay kit (Cayman, USA), as previously described (56, 63). Briefly, after each experimental treatment, MEFs were homogenized using a cold lysis buffer (10 mM Tris-HCl, pH 7.0, 300 mM sucrose, 0.5% Triton X-100). To identify specific activity of Ca^2+-independent PLA2g6, the assay buffers were modified to contain no Ca^2+, and phospholipase activity was assayed by incubating the samples with the substrate, 1-hexadecyl-2-arachidonoylthio-2-deoxy-sn-glycero-3-phosphorylcholine for 1 h at room temperature in a modified Ca^2+-free assay buffer (10 mM HEPES, pH 7.4, 300 mM NaCl, 60% glycerol, 8 mM Triton X-100, 4 mM EGTA, and 2 mg/ml bovine serum albumin). The generated free thiols were visualized by the addition of DTNB (5,5′-dithiobis(2-[…])) for 5 min, and the absorbance was determined at 405 nm using a standard microplate reader. In calculations of specific PLA2g6 activity a value of 10 mM^−1 was used as extinction coefficient for DTNB at 405 nm. Summary data present average (±SEM) from 3 independent experiments for each condition.

Assay [2] has as its system store-operated Ca^2+ entry (SOCE). In words: Ca^2+ imaging, store-operated Ca^2+ entry in MEFs. It is filed as cell-based, mouse. Conditions: MEFs from WT mice. On the procedure: as §1, §2

Regarding `N[C@@H](Cc1ccc(O)c(O)c1)C(=O)O` [L-DOPA, L-3,4-dihydroxyphenylalanine], in the assay with KO^Ex2 mice (KO^Ex2 mice at 12, 16 and 24 months, L-DOPA 5-25 mg/kg, dose and age-dependent manner), the “number of missteps in beam balance test” value was “significantly reduced”. Also, the “motor performance (PD-like motor dysfunction)” value with KO^Ex2 mice (KO^Ex2 mice, L-DOPA 5-25 mg/kg peritoneal injection, Benserazide 6 mg/kg 20 min before, test 1 h after injection) is “significantly improved”. Take `C[C@H](CCC(=O)O)C[C@H](C)C[C@H](C)C(=O)/C=C(\O)[C@H](C)C[C@H](C)C/C=C/[C@@H](C)[C@@H](O)[C@@H](C)[C@@H](O)C[C@@H]1CC[C@@](C)([C@H]2CC[C@@](C)([C@@H](C)O)O2)O1` [ionomycin]: the “decrease in the peak of Ca^2+ release caused by ionomycin” value in assay [1] is reported as 60%. Regarding `O=C(O)CN(CCOCCOCCN(CC(=O)O)CC(=O)O)CC(=O)O` [EGTA], in the assay with PLA2g6, the “effect on PLA2g6 catalytic activity” value is listed as “activation”. As to `O=C1O/C(=C/Br)CC[C@H]1c1cccc2ccccc12` [S-BEL, (S)-bromoenol lactone], the “effect on PLA2g6 catalytic activity” value with PLA2g6 was “inhibition”. In assay [2] (S-BEL 50 μM for 20 min pretreatment), the “effect on TPEN-induced Ca^2+ entry” value is listed as “S-BEL-sensitive”. For the molecule `c1ccc(CN(CCN(Cc2ccccn2)Cc2ccccn2)Cc2ccccn2)nc1` [TPEN, N,N,N′,N′-Tetrakis(2-pyridylmethyl)ethylenediamine], in assay [2] (TPEN 400 μM), the “store-operated Ca^2+ entry” value was “activated”.

The record behind these values is patent publication US10390521B2, “Parkinsons disease model and methods” (Boston Medical Center Corporation, priority 2013, dated 2019).
